pKi: −log10 of the molar value.
target: T1, Cdc7 (BEV coexpressed huCDC7/DBF4) (Homo sapiens, UniProt O00311); experiment: Cdc7 enzyme inhibition assay ([33P]ATP, biotinylated peptide substrate, FlashPlate); assay type: biochemical; details: Table 3; enzyme inhibition data (Ki)
T1 construct: made in house; host or cells: BEV (baculovirus expression vector) co-expression; insect cells are implied but no cell line is named
Method: Cdc7 (BEV coexpressed huCDC7/DBF4) is prepared internally. Cdc7 assays are conducted as follows with final concentrations as listed. […] Reactions are quenched after 1 hr by the addition of 90 μL stop buffer (50 mM EDTA, 2M NaCl). […] (Ki) for exemplary compounds.

T1 sequence (O00311 whole entry): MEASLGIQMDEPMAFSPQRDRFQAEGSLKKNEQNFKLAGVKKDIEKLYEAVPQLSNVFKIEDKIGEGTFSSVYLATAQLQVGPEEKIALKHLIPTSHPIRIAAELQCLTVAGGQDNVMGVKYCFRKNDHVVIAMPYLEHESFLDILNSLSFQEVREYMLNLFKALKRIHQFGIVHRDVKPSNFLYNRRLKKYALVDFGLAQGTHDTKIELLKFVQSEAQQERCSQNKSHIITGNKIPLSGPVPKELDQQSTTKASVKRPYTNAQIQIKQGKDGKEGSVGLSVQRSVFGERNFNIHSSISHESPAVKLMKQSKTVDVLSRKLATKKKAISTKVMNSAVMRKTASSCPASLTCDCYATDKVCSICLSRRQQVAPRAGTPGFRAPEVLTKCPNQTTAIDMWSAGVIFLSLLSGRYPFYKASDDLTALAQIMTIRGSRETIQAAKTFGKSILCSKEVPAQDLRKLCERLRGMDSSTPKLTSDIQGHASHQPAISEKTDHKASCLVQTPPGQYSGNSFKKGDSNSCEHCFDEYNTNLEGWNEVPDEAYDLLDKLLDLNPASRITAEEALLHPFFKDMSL
T1 sequence (Q9UBU7 whole entry partner): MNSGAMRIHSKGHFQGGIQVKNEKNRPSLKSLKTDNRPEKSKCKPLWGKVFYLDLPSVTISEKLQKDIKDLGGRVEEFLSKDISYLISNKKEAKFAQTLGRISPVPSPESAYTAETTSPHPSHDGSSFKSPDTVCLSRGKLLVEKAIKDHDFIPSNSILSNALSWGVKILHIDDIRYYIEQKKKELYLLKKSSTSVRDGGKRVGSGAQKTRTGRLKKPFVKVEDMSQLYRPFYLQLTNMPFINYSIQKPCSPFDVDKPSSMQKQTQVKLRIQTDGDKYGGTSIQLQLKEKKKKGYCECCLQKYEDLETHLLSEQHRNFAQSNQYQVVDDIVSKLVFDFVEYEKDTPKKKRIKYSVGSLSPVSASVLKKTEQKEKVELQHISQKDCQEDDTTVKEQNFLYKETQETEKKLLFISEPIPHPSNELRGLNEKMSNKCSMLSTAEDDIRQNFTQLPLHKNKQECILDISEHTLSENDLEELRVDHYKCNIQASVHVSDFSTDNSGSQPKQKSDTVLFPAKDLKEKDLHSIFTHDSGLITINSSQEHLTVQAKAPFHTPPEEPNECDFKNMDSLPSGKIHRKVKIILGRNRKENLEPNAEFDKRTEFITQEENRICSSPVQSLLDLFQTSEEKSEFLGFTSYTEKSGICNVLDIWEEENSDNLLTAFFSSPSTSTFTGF

| Compound | pKi |
| --- | --- |
| Clc1cc(-c2c[nH]c3ncccc23)cc(NCc2ccc3[nH]ccc3c2)n1 [Example 410, 6-chloro-N-(1H-indol-5-ylmethyl)-4-(1H-pyrrolo[2,3-b]pyridin-3-yl)pyridin-2-amine] | > 8.00 |
| COc1ccc(Nc2cc(-c3c[nH]c4ncccc34)cc(Cl)n2)cc1 [Example 411, 6-chloro-N-(4-methoxyphenyl)-4-(1H-pyrrolo[2,3-b]pyridin-3-yl)pyridin-2-amine] | > 8.00 |
| COc1cc(Nc2cc(-c3c[nH]c4ncccc34)cc(Cl)n2)cc(OC)c1OC [Example 412, 6-chloro-4-(1H-pyrrolo[2,3-b]pyridin-3-yl)-N-(3,4,5-trimethoxyphenyl)pyridin-2-amine] | > 8.00 |
| Clc1cc(-c2c[nH]c3ncccc23)cc(Nc2ccc(-n3ccnc3)cc2)n1 [Example 413, 6-chloro-N-[4-(1H-imidazol-1-yl)phenyl]-4-(1H-pyrrolo[2,3-b]pyridin-3-yl)pyridin-2-amine] | > 8.00 |
| COc1ccc(CNc2cc(-c3c[nH]c4ncccc34)cc(Cl)n2)cc1OC [Example 414] | > 8.00 |
| OC(CNc1cc(-c2c[nH]c3ncccc23)cc(Cl)n1)c1ccccc1 (centres unmarked) [Example 415, 2-{[6-chloro-4-(1H-pyrrolo[2,3-b]pyridin-3-yl)pyridin-2-yl]amino}-1-phenylethanol] | > 8.00 |
| Clc1cc(-c2c[nH]c3ncccc23)cc(NCCCc2ccccc2)n1 [Example 416, 6-chloro-N-(3-phenylpropyl)-4-(1H-pyrrolo[2,3-b]pyridin-3-yl)pyridin-2-amine] | > 8.00 |
| CS(=O)(=O)c1ccc(CNc2cc(-c3c[nH]c4ncccc34)cc(Cl)n2)cc1 [Example 417, 6-chloro-N-[4-(methylsulfonyl)benzyl]-4-(1H-pyrrolo[2,3-b]pyridin-3-yl)pyridin-2-amine] | > 8.00 |
| CSc1ccc(Nc2cc(-c3c[nH]c4ncccc34)cc(Cl)n2)cc1 [Example 418, 6-chloro-N-[4-(methylsulfanyl)phenyl]-4-(1H-pyrrolo[2,3-b]pyridin-3-yl)pyridin-2-amine] | > 8.00 |
| Clc1cc(-c2c[nH]c3ncccc23)cc(Nc2ccc(Oc3ccccc3)cc2)n1 [Example 419, 6-chloro-N-(4-phenoxyphenyl)-4-(1H-pyrrolo[2,3-b]pyridin-3-yl)pyridin-2-amine] | > 8.00 |
| Clc1cc(-c2c[nH]c3ncccc23)cc(Nc2ccc(N3CCCCC3)cc2)n1 [Example 420, 6-chloro-N-[4-(piperidin-1-yl)phenyl]-4-(1H-pyrrolo[2,3-b]pyridin-3-yl)pyridin-2-amine] | > 8.00 |
| COC(=O)c1cnc2[nH]cc(-c3cc(Cl)nc(NC4CCCCC4)c3)c2c1 [Example 421, methyl 3-[2-chloro-6-(cyclohexylamino)pyridin-4-yl]-1H-pyrrolo[2,3-b]pyridine-5-carboxylate] | > 8.00 |
| O=C(CN1CCN(CCO)CC1)N[C@H]1CC[C@H](Nc2cc(-c3c[nH]c4ncccc34)cc(Cl)n2)CC1 [Example 422, N-(trans-4-{[6-chloro-4-(1H-pyrrolo[2,3-b]pyridin-3-yl)pyridin-2-yl]amino}cyclohexyl)-2-[4-(2-hydroxyethyl)piperazin-1-yl]acetamide] | > 8.00 |
| Cc1cccc(C)c1N1CCN(CC(=O)N[C@H]2CC[C@H](Nc3cc(-c4c[nH]c5ncccc45)cc(Cl)n3)CC2)CC1 [Example 423, N-(trans-4-{[6-chloro-4-(1H-pyrrolo[2,3-b]pyridin-3-yl)pyridin-2-yl]amino}cyclohexyl)-2-[4-(2,6-dimethylphenyl)piperazin-1-yl]acetamide] | > 8.00 |
| COc1cnc2[nH]cc(-c3cc(Cl)nc(NC4CCC(CC5CCC(NC6CCC6)CC5)CC4)c3)c2c1 (centres unmarked) [Example 424, 6-chloro-N-(4-{[4-(cyclobutylamino)cyclohexyl]methyl}cyclohexyl)-4-(5-methoxy-1H-pyrrolo[2,3-b]pyridin-3-yl)pyridin-2-amine] | > 8.00 |
| CCC(CC)NC1CCC(CC2CCC(Nc3cc(-c4c[nH]c5ncc(OC)cc45)cc(Cl)n3)CC2)CC1 (centres unmarked) [Example 425, 6-chloro-4-(5-methoxy-1H-pyrrolo[2,3-b]pyridin-3-yl)-N-(4-{[4-(pentan-3-ylamino)cyclohexyl]methyl}cyclohexyl)pyridin-2-amine] | > 8.00 |
| COc1cnc2[nH]cc(-c3cc(Cl)nc(NC4CCC(CC5CCC(NCC6CCCC6)CC5)CC4)c3)c2c1 (centres unmarked) [Example 426, 6-chloro-N-[4-({4-[(cyclopentylmethyl)amino]cyclohexyl}methyl)cyclohexyl]-4-(5-methoxy-1H-pyrrolo[2,3-b]pyridin-3-yl)pyridin-2-amine] | > 8.00 |
| N[C@H]1CC[C@H](Nc2cc(-c3c[nH]c4ncc(OCCc5ccccn5)cc34)cc(Cl)n2)CC1 [Example 427, trans-N-(6-chloro-4-{5-[2-(pyridin-2-yl)ethoxy]-1H-pyrrolo[2,3-b]pyridin-3-yl}pyridin-2-yl)cyclohexane-1,4-diamine] | > 8.00 |

| Compound | pKi |
| --- | --- |
| CC(C)COc1cnc2[nH]cc(-c3cc(Cl)nc(N[C@H]4CC[C@H](N)CC4)c3)c2c1 [Example 428, trans-N-{6-chloro-4-[5-(2-methylpropoxy)-1H-pyrrolo[2,3-b]pyridin-3-yl]pyridin-2-yl}cyclohexane-1,4-diamine] | > 8.00 |
| O=C(N[C@H]1CC[C@H](Nc2cc(-c3c[nH]c4ncccc34)cc(Cl)n2)CC1)C1CN(Cc2ccccn2)C1 [Example 429, N-(trans-4-{[6-chloro-4-(1H-pyrrolo[2,3-b]pyridin-3-yl)pyridin-2-yl]amino}cyclohexyl)-1-(pyridin-2-ylmethyl)azetidine-3-carboxamide] | > 8.00 |
| COc1cnc2[nH]cc(-c3cc(Cl)nc(N[C@H]4CC[C@H](NC(=O)C(F)(F)F)CC4)c3)c2c1 [Example 430, N-(trans-4-{[6-chloro-4-(5-methoxy-1H-pyrrolo[2,3-b]pyridin-3-yl)pyridin-2-yl]amino}cyclohexyl)-2,2,2-trifluoroacetamide] | > 8.00 |
| COc1ccc(-c2cnc3[nH]cc(-c4cc(Cl)nc(NC5CCCCC5)c4)c3c2)cn1 [Example 431, 6-chloro-N-cyclohexyl-4-[5-(6-methoxypyridin-3-yl)-1H-pyrrolo[2,3-b]pyridin-3-yl]pyridin-2-amine] | > 8.00 |
| CCN(CCO)CC(=O)N[C@H]1CC[C@H](Nc2cc(-c3c[nH]c4ncc(OC)cc34)cc(Cl)n2)CC1 [Example 432, N-(trans-4-{[6-chloro-4-(5-methoxy-1H-pyrrolo[2,3-b]pyridin-3-yl)pyridin-2-yl]amino}cyclohexyl)-N~2~-ethyl-N~2~-(2-hydroxyethyl)glycinamide] | > 8.00 |
| COc1cnc2[nH]cc(-c3cc(Cl)nc(N[C@H]4CC[C@H](NC(=O)CNCCO)CC4)c3)c2c1 [Example 433, N-(trans-4-{[6-chloro-4-(5-methoxy-1H-pyrrolo[2,3-b]pyridin-3-yl)pyridin-2-yl]amino}cyclohexyl)-N~2~-(2-hydroxyethyl)glycinamide] | > 8.00 |
| CN(C)c1ccc(Nc2cc(-c3c[nH]c4ncccc34)cc(Cl)n2)cc1 [Example 434, N′-[6-chloro-4-(1H-pyrrolo[2,3-b]pyridin-3-yl)pyridin-2-yl]-N,N-dimethylbenzene-1,4-diamine] | > 8.00 |
| Clc1cc(-c2c[nH]c3ncccc23)cc(Nc2ccc3c(c2)CCC3)n1 [Example 435, 6-chloro-N-(2,3-dihydro-1H-inden-5-yl)-4-(1H-pyrrolo[2,3-b]pyridin-3-yl)pyridin-2-amine] | > 8.00 |
| Clc1cc(-c2c[nH]c3ncccc23)cc(Nc2ccc3c(c2)OCCO3)n1 [Example 436, 6-chloro-N-(2,3-dihydro-1,4-benzodioxin-6-yl)-4-(1H-pyrrolo[2,3-b]pyridin-3-yl)pyridin-2-amine] | > 8.00 |
| Clc1cc(-c2c[nH]c3ncccc23)cc(Nc2ccc(N3CCOCC3)cc2)n1 [Example 438, 6-chloro-N-[4-(morpholin-4-yl)phenyl]-4-(1H-pyrrolo[2,3-b]pyridin-3-yl)pyridin-2-amine] | > 8.00 |
| Clc1cc(-c2c[nH]c3ncccc23)cc(Nc2cccc3c2CCCC3)n1 [Example 439, 6-chloro-4-(1H-pyrrolo[2,3-b]pyridin-3-yl)-N-(5,6,7,8-tetrahydronaphthalen-1-yl)pyridin-2-amine] | > 8.00 |
| CC(C)(C)c1ccc(Nc2cc(-c3c[nH]c4ncccc34)cc(Cl)n2)cc1 [Example 440, N-(4-tert-butylphenyl)-6-chloro-4-(1H-pyrrolo[2,3-b]pyridin-3-yl)pyridin-2-amine] | > 8.00 |
| Clc1cc(-c2c[nH]c3ncccc23)cc(Nc2cccc3c2CCC3)n1 [Example 441, 6-chloro-N-(2,3-dihydro-1H-inden-4-yl)-4-(1H-pyrrolo[2,3-b]pyridin-3-yl)pyridin-2-amine] | > 8.00 |
| Clc1cc(-c2c[nH]c3ncccc23)cc(Nc2ccc3ncccc3c2)n1 [Example 442, N-[6-chloro-4-(1H-pyrrolo[2,3-b]pyridin-3-yl)pyridin-2-yl]quinolin-6-amine] | > 8.00 |
| CN1CCN(c2ccc(Nc3cc(-c4c[nH]c5ncccc45)cc(Cl)n3)cc2)CC1 [Example 443, 6-chloro-N-[4-(4-methylpiperazin-1-yl)phenyl]-4-(1H-pyrrolo[2,3-b]pyridin-3-yl)pyridin-2-amine] | > 8.00 |
| O=S1(=O)CCN(c2ccc(Nc3cc(-c4c[nH]c5ncccc45)cc(Cl)n3)cc2)CC1 [Example 444, 6-chloro-N-[4-(1,1-dioxidothiomorpholin-4-yl)phenyl]-4-(1H-pyrrolo[2,3-b]pyridin-3-yl)pyridin-2-amine] | > 8.00 |
| COc1cnc2[nH]cc(-c3cc(Cl)nc(N[C@H]4CC[C@H](NC(=O)CN[C@H]5CC[C@H](O)CC5)CC4)c3)c2c1 [Example 445, N-(trans-4-{[6-chloro-4-(5-methoxy-1H-pyrrolo[2,3-b]pyridin-3-yl)pyridin-2-yl]amino}cyclohexyl)-N~2~-(trans-4-hydroxycyclohexyl)glycinamide] | > 8.00 |
